The target in series [1] is Apoptosis regulator Bcl-2 (Homo sapiens, UniProt P10415). Description: Inhibition of FAM-labelled Bax binding to Bcl2 (unknown origin) after 30 mins by fluorescence polarization assay.
Series [2] addresses Bcl-2-like protein 1 (Homo sapiens, UniProt Q07817). Description: Inhibition of FAM-labelled Bax binding to Bcl-xL (unknown origin) after 30 mins by fluorescence polarization assay.
For series [3], the species on record is Homo sapiens. The series is described as follows: Selectivity factor, ratio of IC50 for Bcl-xL (unknown origin) to Bcl2 (unknown origin).
The test system of series [4] is RS4-11. The series is described as follows: Antiproliferative activity against human RS4:11 cells after 72 hrs by MTS assay. The conditions noted are these: RS4-11, 72 h. The series is classed as functional, cell-based.
Series [5] deals with Toledo. Description: Antiproliferative activity against human Toledo cells after 72 hrs by MTS assay. The series is classed as functional, cell-based.
Series [6] is described as follows: Apparent permeability across apical to basolateral side in human Caco2 cells at 20 uM. Conditions: Caco-2. The series is classed as ADME, cell-based.
Series [7] in a line: Apparent permeability across basolateral to apical side in human Caco2 cells at 20 uM. The series is classed as ADME, cell-based. Conditions: Caco-2.
A short description of series [8]: Efflux ratio of apparent permeability across […] to apical side in human Caco2 cells at 20 uM. The series is classed as ADME, cell-based. Conditions: Caco-2.
In series [9] the target is Voltage-gated inwardly rectifying potassium channel KCNH2 (Homo sapiens, UniProt Q12809). The series is described as follows: Inhibition of human ERG.
Chain of Voltage-gated inwardly rectifying potassium channel KCNH2 (Q12809 whole entry): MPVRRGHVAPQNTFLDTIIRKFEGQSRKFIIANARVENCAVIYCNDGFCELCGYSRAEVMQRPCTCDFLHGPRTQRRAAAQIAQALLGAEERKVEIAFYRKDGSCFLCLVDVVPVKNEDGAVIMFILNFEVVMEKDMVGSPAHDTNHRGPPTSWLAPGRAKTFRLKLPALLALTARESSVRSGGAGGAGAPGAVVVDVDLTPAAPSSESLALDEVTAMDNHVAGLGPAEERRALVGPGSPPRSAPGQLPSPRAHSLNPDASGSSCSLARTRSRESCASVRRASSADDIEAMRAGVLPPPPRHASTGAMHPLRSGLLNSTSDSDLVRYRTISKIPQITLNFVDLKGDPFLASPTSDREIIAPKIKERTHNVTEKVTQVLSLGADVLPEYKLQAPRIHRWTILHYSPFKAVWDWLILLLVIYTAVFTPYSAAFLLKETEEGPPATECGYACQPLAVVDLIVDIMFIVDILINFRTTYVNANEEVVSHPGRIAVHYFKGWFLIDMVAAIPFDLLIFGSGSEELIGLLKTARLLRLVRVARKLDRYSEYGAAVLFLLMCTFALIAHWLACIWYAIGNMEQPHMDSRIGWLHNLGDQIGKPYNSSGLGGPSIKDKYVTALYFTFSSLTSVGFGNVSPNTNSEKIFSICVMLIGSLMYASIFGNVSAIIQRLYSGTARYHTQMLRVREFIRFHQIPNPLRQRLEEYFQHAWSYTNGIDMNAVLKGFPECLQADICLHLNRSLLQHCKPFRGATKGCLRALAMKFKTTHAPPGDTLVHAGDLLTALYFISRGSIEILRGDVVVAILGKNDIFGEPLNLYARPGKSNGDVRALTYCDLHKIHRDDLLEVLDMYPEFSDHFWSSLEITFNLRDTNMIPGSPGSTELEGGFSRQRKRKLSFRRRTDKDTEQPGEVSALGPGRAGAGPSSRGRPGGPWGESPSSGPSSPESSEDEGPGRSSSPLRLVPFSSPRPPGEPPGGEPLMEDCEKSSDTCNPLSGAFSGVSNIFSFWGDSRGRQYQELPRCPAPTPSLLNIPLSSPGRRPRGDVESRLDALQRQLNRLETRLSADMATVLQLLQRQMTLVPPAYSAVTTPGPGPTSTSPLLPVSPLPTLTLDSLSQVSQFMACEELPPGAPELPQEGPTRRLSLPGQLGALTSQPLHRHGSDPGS

Chain of Apoptosis regulator Bcl-2 (P10415 whole entry): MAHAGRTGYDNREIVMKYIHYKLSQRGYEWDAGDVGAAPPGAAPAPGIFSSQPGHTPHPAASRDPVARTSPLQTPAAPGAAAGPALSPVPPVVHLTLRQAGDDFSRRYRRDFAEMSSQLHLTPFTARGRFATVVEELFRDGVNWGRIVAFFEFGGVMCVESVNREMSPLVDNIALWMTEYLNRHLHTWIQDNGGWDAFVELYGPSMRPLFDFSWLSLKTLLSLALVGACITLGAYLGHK
Chain of Bcl-2-like protein 1 (Q07817 whole entry): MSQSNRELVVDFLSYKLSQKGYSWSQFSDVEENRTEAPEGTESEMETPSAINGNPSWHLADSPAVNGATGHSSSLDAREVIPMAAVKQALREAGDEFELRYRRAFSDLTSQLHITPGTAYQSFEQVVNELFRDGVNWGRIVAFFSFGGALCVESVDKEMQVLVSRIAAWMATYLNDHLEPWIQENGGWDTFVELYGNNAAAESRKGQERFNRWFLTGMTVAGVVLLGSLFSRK

As for `C[C@H]1[C@@H](OCCN2CCN(c3ccc(C(=O)NS(=O)(=O)c4ccc(NCC5CCOCC5)c([N+](=O)[O-])c4)c(Oc4cnc5[nH]ccc5c4)c3)CC2)O[C@@H]2O[C@@]3(C)CC[C@H]4[C@H](C)CC[C@@H]1[C@@]24O3`, the IC50 in series [1] amounted to 2.2 nM; in series [2], 624 nM; in series [4], 4400 nM; in series [5] it was 9700 nM. Besides, in series [3], the Ratio IC50 amounted to 280.

For `CC1(C)CCC(CN2CCN(c3ccc(C(=O)NS(=O)(=O)c4ccc(NCC5CCOCC5)c([N+](=O)[O-])c4)c(Oc4cnc5[nH]ccc5c4)c3)CC2)=C(c2ccc(Cl)cc2)C1` [VENETOCLAX], the IC50 stood at 6 nM in [4] and 11 nM in series [5].

On to `C[C@@H]1CC[C@H]2C(CN3CCN(c4ccc(C(=O)NS(=O)(=O)c5ccc(NCC6CCOCC6)c([N+](=O)[O-])c5)c(Oc5cnc6[nH]ccc6c5)c4)CC3)=C(C(F)(F)F)O[C@@H]3O[C@@]4(C)CC[C@@H]1[C@]32OO4`, for which the IC50 was 6.2 nM in [1], 71.9 nM in series [2], > 1000 nM in series [4] and > 1000 nM in series [5]. For the same compound, the Ratio IC50 in series [3] was determined as 11.7.

Regarding `C[C@H]1[C@@H](CC(=O)N2CCN(c3ccc(C(=O)NS(=O)(=O)c4ccc(NCC5CCOCC5)c([N+](=O)[O-])c4)c(Oc4cnc5[nH]ccc5c4)c3)CC2)O[C@@H]2O[C@@]3(C)CC[C@H]4[C@H](C)CC[C@@H]1[C@@]24O3`, the IC50 is 3.5 nM in [1], 270 nM in [2], > 1000 nM in [4] and > 1000 nM in [5]. Also, the Ratio IC50 in [3] came out at 77.2.

For the compound `C[C@@H]1CC[C@H]2[C@@H](C)C(OCCN3CCN(c4ccc(C(=O)NS(=O)(=O)c5ccc(NCC6CCOCC6)c([N+](=O)[O-])c5)c(Oc5cnc6[nH]ccc6c5)c4)C[C@H]3CO)O[C@@H]3O[C@@]4(C)CC[C@@H]1[C@]32OO4` (stereo partly drawn), the IC50 is 67.1 nM in series [1], > 1000 nM in series [2], > 1000 nM in series [4] and > 1000 nM in series [5]. Moreover, the Ratio IC50 in series [3] was 14.9.

On to `CO[C@H]1OC2O[C@@]3(C)CC[C@H]4[C@H](C)CC[C@@H]([C@]1(C)CC(=O)N1CCN(c5ccc(C(=O)NS(=O)(=O)c6ccc(NCC7CCOCC7)c([N+](=O)[O-])c6)c(Oc6cnc7[nH]ccc7c6)c5)CC1)[C@@]24OO3` (stereo partly drawn), for which the figures for the IC50 in [1] and in series [2] were 34.7 nM and > 1000 nM, respectively. The Ratio IC50 in series [3] was > 28.8.

Regarding `C[C@H]1[C@@H](CCN2CCN(c3ccc(C(=O)NS(=O)(=O)c4ccc(NCC5CCOCC5)c([N+](=O)[O-])c4)c(Oc4cnc5[nH]ccc5c4)c3)CC2)O[C@@H]2O[C@@]3(C)CC[C@H]4[C@H](C)CC[C@@H]1[C@@]24O3`, the IC50 in series [1] is 1.8 nM; in [2] it was > 1000 nM; in [4], 1300 nM; in series [5], 2600 nM. In addition, in series [3], the Ratio IC50 was > 546.

For the compound `C[C@H]1[C@@H](OCCN2CCN(c3ccc(C(=O)NS(=O)(=O)c4ccc(NCC5CCOCC5)c([N+](=O)[O-])c4)c(Oc4cnc5[nH]ccc5c4)c3)CC2)O[C@@H]2O[C@@]3(C)CC[C@H]4[C@H](C)CC[C@@H]1[C@@]24OO3`, the IC50 in [1] was 5 nM; in [2] it was 279 nM; in series [4], 520 nM; in [5] it was 950 nM; in [9] it was > 40000 nM. Further, in series [3], the Ratio IC50 is 55.3. Besides, the Papp A→B at 20 µM in series [6] was 0.21 ×10⁻⁶ cm/s. Besides, the Papp B→A at 20 µM in [7] worked out at 6.07 ×10⁻⁶ cm/s. Further, the efflux ratio at 20 µM in series [8] amounted to 28.8.

For `C[C@@H]1CC[C@H]2[C@@H](C)C(OCCN3CCN(c4ccc(C(=O)NS(=O)(=O)c5ccc(NCC6CCOCC6)c([N+](=O)[O-])c5)c(Oc5cnc6[nH]ccc6c5)c4)C[C@@H]3CO)O[C@@H]3O[C@@]4(C)CC[C@@H]1[C@]32OO4` (stereo partly drawn), the IC50 in series [1] was 28.7 nM; in [2], > 1000 nM; in series [4] it was > 1000 nM; in series [5], > 1000 nM. In [3], the Ratio IC50 was determined as 34.8.

In the case of `C[C@@H]1CC[C@H]2[C@@H](C)C(OCCNC3CCN(c4ccc(C(=O)NS(=O)(=O)c5ccc(NCC6CCOCC6)c([N+](=O)[O-])c5)c(Oc5cnc6[nH]ccc6c5)c4)CC3)O[C@@H]3O[C@@]4(C)CC[C@@H]1[C@]32OO4` (stereo partly drawn), the IC50 in [1] is 1.9 nM; in series [2] it was > 1000 nM; in series [4] it was > 1000 nM; in series [5], > 1000 nM. For the same compound, the Ratio IC50 in series [3] is > 526.

As for `C[C@@H]1CC[C@H]2C(CN3CCN(c4ccc(C(=O)NS(=O)(=O)c5ccc(NCC6CCOCC6)c([N+](=O)[O-])c5)c(Oc5cnc6[nH]ccc6c5)c4)CC3)=C(C(F)(F)F)O[C@@H]3O[C@@]4(C)CC[C@@H]1[C@]32O4`, the IC50 is 2.8 nM in series [1], 970 nM in series [2], 1900 nM in series [4] and 7400 nM in series [5]. In series [3], the Ratio IC50 came out at 343.

Consider `C[C@H]1[C@@H](CCCN2CCN(c3ccc(C(=O)NS(=O)(=O)c4ccc(NCC5CCOCC5)c([N+](=O)[O-])c4)c(Oc4cnc5[nH]ccc5c4)c3)CC2)O[C@@H]2O[C@@]3(C)CC[C@H]4[C@H](C)CC[C@@H]1[C@@]24OO3`, for which the IC50 is 1.2 nM in series [1]; > 1000 nM in series [2]; 890 nM in series [4]; 880 nM in series [5]; > 40000 nM in series [9]. Besides, in series [3], the Ratio IC50 is > 806.

Turning to `C[C@H]1[C@H](N(C)CCN2CCN(c3ccc(C(=O)NS(=O)(=O)c4ccc(NCC5CCOCC5)c([N+](=O)[O-])c4)c(Oc4cnc5[nH]ccc5c4)c3)CC2)O[C@@H]2O[C@@]3(C)CC[C@H]4[C@H](C)CC[C@@H]1[C@@]24OO3`, the values for the IC50 in [1] and in series [2] were 16.7 nM and > 1000 nM, respectively. Moreover, in [3], the Ratio IC50 was > 59.9.

Turning to `C[C@H]1[C@@H](CC(=O)N2CCN(c3ccc(C(=O)NS(=O)(=O)c4ccc(NCC5CCOCC5)c([N+](=O)[O-])c4)c(Oc4cnc5[nH]ccc5c4)c3)CC2)O[C@@H]2O[C@]3(C)O[C@]24[C@H]1CC[C@@H](C)[C@@H]4C[C@H]3O`, the IC50 in [1] was 50.1 nM; in series [2], 765 nM; in [4] it was > 1000 nM; in [5], > 1000 nM. Moreover, the Ratio IC50 in series [3] stood at 15.3.

`C[C@H]1[C@@H](OCCN2CCN(c3ccc(C(=O)NS(=O)(=O)c4ccc(NCC5CCOCC5)c([N+](=O)[O-])c4)c(Oc4cnc5[nH]ccc5c4)c3)CC2)O[C@@H]2O[C@]3(C)O[C@]24[C@H]1CC[C@@H](C)[C@@H]4C[C@H]3O`: the IC50 was 31.9 nM in series [1] and > 1000 nM in series [2]. In [3], the Ratio IC50 was > 31.3.

For the compound `C[C@@H]1CC[C@@H]2[C@]34OO[C@](C)(CC[C@@H]13)O[C@H]4O[C@]2(C)C(=O)N1CCN(c2ccc(C(=O)NS(=O)(=O)c3ccc(NCC4CCOCC4)c([N+](=O)[O-])c3)c(Oc3cnc4[nH]ccc4c3)c2)CC1`, the IC50 in series [1] amounted to 13 nM; in [2], 512 nM. In addition, the Ratio IC50 in series [3] is 39.2.

As to `C[C@H]1[C@@H](CCN2CCN(c3ccc(C(=O)NS(=O)(=O)c4ccc(NCC5CCOCC5)c([N+](=O)[O-])c4)c(Oc4cnc5[nH]ccc5c4)c3)CC2)O[C@@H]2O[C@@]3(C)CC[C@H]4[C@H](C)CC[C@@H]1[C@@]24OO3`, the IC50 is 9.7 nM in [1] and > 1000 nM in series [2]. Moreover, the Ratio IC50 in series [3] was > 103.

Consider `C[C@@H]1CC[C@H]2[C@@](C)(O)[C@@H](OCCN3CCN(c4ccc(C(=O)NS(=O)(=O)c5ccc(NCC6CCOCC6)c([N+](=O)[O-])c5)c(Oc5cnc6[nH]ccc6c5)c4)CC3)O[C@@H]3O[C@@]4(C)CC[C@@H]1[C@]32OO4`, for which the IC50 in series [1] is 86.5 nM; in series [2], 287 nM. The Ratio IC50 in series [3] amounted to 3.3.

With `C[C@H]1[C@@H](CC(=O)N2CCN(c3ccc(C(=O)NS(=O)(=O)c4ccc(NCC5CCOCC5)c([N+](=O)[O-])c4)c(Oc4cnc5[nH]ccc5c4)c3)CC2)O[C@@H]2O[C@@]3(C)CC[C@H]4[C@H](C)CC[C@@H]1[C@@]24OO3`, the IC50 in series [1] is 11.9 nM; in series [2], 109 nM. Moreover, the Ratio IC50 in series [3] is 9.16.

Source of the values: ChEMBL document CHEMBL4261603, “Development of high potent and selective Bcl-2 inhibitors bearing the structural elements of natural product artemisinin” (Eur J Med Chem, 2018).
